Source: ChEMBL document CHEMBL1201861, “Genomics of Drug Sensitity in Cancer screening data, Wellcome Trust Sanger Institute”
Counter-ions that a name gives are not always drawn.

How the values were obtained:
SW948 = experiment: cells; format: functional, cell-based, Homo sapiens; settings: Homo sapiens, SW948;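 note: growth inhibition of SW948 cells, read out with a cell viability assay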
Description: SANGER: Inhibition of human SW948 cell growth in a cell viability assay.

DV-90 = experiment: cells; format: functional, cell-based, Homo sapiens; settings: Homo sapiens, DV-90;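 note: Read-out is a viability assay, with IC50 reflecting the drop in DV-90 cell growth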
Description: SANGER: Inhibition of human DV-90 cell growth in a cell viability assay.

Caov-3 cell line = experiment: cells; format: functional, cell-based, Homo sapiens; settings: Homo sapiens, Caov-3;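 note: cell growth inhibition read out by a viability assay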
Description: SANGER: Inhibition of human Caov-3 cell growth in a cell viability assay.

CAL-72 = experiment: cells; format: functional, cell-based, Homo sapiens; settings: Homo sapiens, CAL-72;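 note: cell viability assay measuring inhibition of proliferation in the CAL-72 cell line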
Description: SANGER: Inhibition of human CAL-72 cell growth in a cell viability assay.

IM-9 = experiment: SANGER: Inhibition of human IM-9 cell growth in a cell viability assay.; format: functional, cell-based; settings: Homo sapiens, IM-9
Calu-3 = experiment: cells; format: functional, cell-based, Homo sapiens; settings: Homo sapiens, Calu-3;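 note: growth inhibition of human Calu-3 cells, determined with a cell viability assay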
Description: SANGER: Inhibition of human Calu-3 cell growth in a cell viability assay.

T47D = experiment: cells; format: functional, cell-based, Homo sapiens; settings: Homo sapiens, T47D;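 note: growth inhibition of human T47D cells, measured with a cell viability assay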
Description: SANGER: Inhibition of human T47D cell growth in a cell viability assay.

NCI-H2405 = experiment: cells; format: functional, cell-based, Homo sapiens; settings: Homo sapiens, NCI-H2405;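 note: growth inhibition of the human cell line, read out with a cell viability assay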
Description: SANGER: Inhibition of human NCI-H2405 cell growth in a cell viability assay.

PC-14 = experiment: cells; format: functional, cell-based, Homo sapiens; settings: Homo sapiens, PC-14;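 note: cell viability assay measuring inhibition of PC-14 cell growth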
Description: SANGER: Inhibition of human PC-14 cell growth in a cell viability assay.

TYK-nu = experiment: cells; format: functional, cell-based, Homo sapiens; settings: Homo sapiens, TYK-nu;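 note: growth inhibition of human TYK-nu cells, read out by a cell viability assay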
Description: SANGER: Inhibition of human TYK-nu cell growth in a cell viability assay.

SK-MEL-28 = experiment: cells; format: functional, cell-based, Homo sapiens; settings: Homo sapiens, SK-MEL-28;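 note: growth inhibition of human SK-MEL-28 cells, read out with a cell viability assay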
Description: SANGER: Inhibition of human SK-MEL-28 cell growth in a cell viability assay.

KOSC-2 = experiment: cells; format: functional, cell-based, Homo sapiens; settings: Homo sapiens, KOSC-2;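 note: growth inhibition of KOSC-2 cells, read out by a cell viability assay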
Description: SANGER: Inhibition of human KOSC-2 cell growth in a cell viability assay.

COLO 205 = experiment: cells; format: functional, cell-based, Homo sapiens; settings: Homo sapiens, COLO 205
Description: SANGER: Inhibition of human COLO-205 cell growth in a cell viability assay.

CAL-85-1 = experiment: cells; format: functional, cell-based, Homo sapiens; settings: Homo sapiens, CAL-85-1;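 note: growth inhibition of human CAL-85-1 cells, read out with a cell viability assay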
Description: SANGER: Inhibition of human CAL-85-1 cell growth in a cell viability assay.

PLC-PRF-5 = experiment: cells; format: functional, cell-based, Homo sapiens; settings: Homo sapiens, PLC-PRF-5;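 note: growth inhibition of human PLC-PRF-5 cells, read out with a viability assay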
Description: SANGER: Inhibition of human PLC-PRF-5 cell growth in a cell viability assay.

ABC-1 = experiment: cells; format: functional, cell-based, Homo sapiens; settings: Homo sapiens, ABC-1;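 note: growth inhibition of human ABC-1 cells, read out by a cell viability assay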
Description: SANGER: Inhibition of human ABC-1 cell growth in a cell viability assay.

NCI-H2452 = experiment: cells; format: functional, cell-based, Homo sapiens; settings: Homo sapiens, NCI-H2452;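 note: growth inhibition of NCI-H2452 cells, read out with a cell viability assay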
Description: SANGER: Inhibition of human NCI-H2452 cell growth in a cell viability assay.

NCI-H64 = experiment: cells; format: functional, cell-based, Homo sapiens; settings: Homo sapiens, NCI-H64;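 note: growth inhibition of NCI-H64 cells, read out with a cell viability assay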
Description: SANGER: Inhibition of human NCI-H64 cell growth in a cell viability assay.

HCC1143 = experiment: cells; format: functional, cell-based, Homo sapiens; settings: Homo sapiens, HCC1143;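 note: growth inhibition of human HCC1143 cells, read out with a cell viability assay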
Description: SANGER: Inhibition of human HCC1143 cell growth in a cell viability assay.

NCI-H2342 = experiment: cells; format: functional, cell-based, Homo sapiens; settings: Homo sapiens, NCI-H2342;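 note: growth inhibition of the cancer cell line, determined with a cell viability assay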
Description: SANGER: Inhibition of human NCI-H2342 cell growth in a cell viability assay.

MIA PaCa-2 = experiment: cells; format: functional, cell-based, Homo sapiens; settings: Homo sapiens, MIA PaCa-2;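 note: growth inhibition of MIA PaCa-2 cells, read out with a cell viability assay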
Description: SANGER: Inhibition of human MIA-PaCa-2 cell growth in a cell viability assay.

SK-CO-1 = experiment: cells; format: functional, cell-based, Homo sapiens; settings: Homo sapiens, SK-CO-1;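 note: growth inhibition of SK-CO-1 cells, determined by a viability readout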
Description: SANGER: Inhibition of human SK-CO-1 cell growth in a cell viability assay.

HO-1-N-1 = experiment: cells; format: functional, cell-based, Homo sapiens; settings: Homo sapiens, HO-1-N-1;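 note: growth inhibition of human HO-1-N-1 cells, read out with a cell viability assay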
Description: SANGER: Inhibition of human HO-1-N-1 cell growth in a cell viability assay.

DMS-53 = experiment: cells; format: functional, cell-based, Homo sapiens; settings: Homo sapiens, DMS-53;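 note: cell viability assay measuring growth inhibition of human DMS-53 cells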
Description: SANGER: Inhibition of human DMS-53 cell growth in a cell viability assay.

SCC-3 = experiment: cells; format: functional, cell-based, Homo sapiens; settings: Homo sapiens, SCC-3;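 note: cell viability assay measuring inhibition of SCC-3 cell growth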
Description: SANGER: Inhibition of human SCC-3 cell growth in a cell viability assay.

CAL-39 = experiment: cells; format: functional, cell-based, Homo sapiens; settings: Homo sapiens, CAL-39;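 note: cell viability assay measuring growth inhibition of CAL-39 cells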
Description: SANGER: Inhibition of human CAL-39 cell growth in a cell viability assay.

RT-4 = experiment: SANGER: Inhibition of human RT4 cell growth in a cell viability assay.; format: functional, cell-based; settings: Homo sapiens, RT-4
HCC1419 = experiment: cells; format: functional, cell-based, Homo sapiens; settings: Homo sapiens, HCC1419;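 note: growth inhibition of human HCC1419 cells, read out as cell viability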
Description: SANGER: Inhibition of human HCC1419 cell growth in a cell viability assay.

OAW-42 = experiment: cells; format: functional, cell-based, Homo sapiens; settings: Homo sapiens, OAW-42;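 note: growth inhibition of OAW-42 cells, read out with a cell viability assay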
Description: SANGER: Inhibition of human OAW-42 cell growth in a cell viability assay.

LC-1F = experiment: cells; format: functional, cell-based, Homo sapiens; settings: Homo sapiens, LC-1F;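 note: growth inhibition of human LC-1F cells, read out with a cell viability assay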
Description: SANGER: Inhibition of human LC-1F cell growth in a cell viability assay.

IGR-1 = experiment: cells; format: functional, cell-based, Homo sapiens; settings: Homo sapiens, IGR-1;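 note: growth inhibition of human IGR-1 cells, read out with a cell viability assay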
Description: SANGER: Inhibition of human IGR-1 cell growth in a cell viability assay.

MHH-ES-1 = experiment: cells; format: functional, cell-based, Homo sapiens; settings: Homo sapiens, MHH-ES-1
Description: SANGER: Inhibition of human MHH-ES-1 cell growth in a cell viability assay.

A204 = experiment: cells; format: functional, cell-based, Homo sapiens; settings: Homo sapiens, A204;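 note: growth inhibition of human A204 cells, read out with a cell viability assay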
Description: SANGER: Inhibition of human A204 cell growth in a cell viability assay.

SiHa = experiment: cells; format: functional, cell-based, Homo sapiens; settings: Homo sapiens, SiHa;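 note: Viability-based readout of growth inhibition in SiHa cells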
Description: SANGER: Inhibition of human SiHa cell growth in a cell viability assay.

Calu-1 = experiment: SANGER: Inhibition of human Calu-1 cell growth in a cell viability assay.; format: functional, cell-based; settings: Homo sapiens, Calu-1
RMG-I = experiment: cells; format: functional, cell-based, Homo sapiens; settings: Homo sapiens, RMG-I;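 note: growth inhibition of human RMG-I cells, read out with a cell viability assay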
Description: SANGER: Inhibition of human RMG-I cell growth in a cell viability assay.

MDA-MB-157 = experiment: cells; format: functional, cell-based, Homo sapiens; settings: Homo sapiens, MDA-MB-157
Description: SANGER: Inhibition of human MDA-MB-157 cell growth in a cell viability assay.

HT-29 = experiment: cells; format: functional, cell-based, Homo sapiens; settings: Homo sapiens, HT-29;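 note: growth inhibition of human HT-29 cells, read out by a cell viability assay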
Description: SANGER: Inhibition of human HT-29 cell growth in a cell viability assay.

Compound | IC50 (SW948) [nM] | IC50 (DV-90) [nM] | IC50 (Caov-3 cell line) [nM] | IC50 (CAL-72) [nM] | IC50 (IM-9) [nM] | IC50 (Calu-3) [nM] | IC50 (T47D) [nM] | IC50 (NCI-H2405) [nM] | IC50 (PC-14) [nM] | IC50 (TYK-nu) [nM] | IC50 (SK-MEL-28) [nM] | IC50 (KOSC-2) [nM] | IC50 (COLO 205) [nM] | IC50 (CAL-85-1) [nM] | IC50 (PLC-PRF-5) [nM] | IC50 (ABC-1) [nM] | IC50 (NCI-H2452) [nM] | IC50 (NCI-H64) [nM] | IC50 (HCC1143) [nM] | IC50 (NCI-H2342) [nM] | also measured
C=C(c1ccc(C(=O)O)cc1)c1cc2c(cc1C)C(C)(C)CCC2(C)C [BEXAROTENE] | > 8000 | > 8000 | > 8000 | > 8000 | > 8000 | > 8000 | > 8000 | > 8000 | > 8000 | 7110 | > 8000 | > 8000 | > 8000 | > 8000 | > 8000 | > 8000 | > 8000 | > 8000 | > 8000 | > 8000 | IC50 (MIA PaCa-2): > 8000 nM; IC50 (SK-CO-1): > 8000 nM; IC50 (HO-1-N-1): > 8000 nM; IC50 (DMS-53): > 8000 nM; IC50 (SCC-3): > 8000 nM; IC50 (CAL-39): > 8000 nM; IC50 (RT-4): > 8000 nM; IC50 (HCC1419): > 8000 nM; IC50 (OAW-42): > 8000 nM; IC50 (LC-1F): > 8000 nM; IC50 (IGR-1): > 8000 nM; IC50 (MHH-ES-1): > 8000 nM; IC50 (A204): > 8000 nM; IC50 (SiHa): > 8000 nM; IC50 (Calu-1): > 8000 nM; IC50 (RMG-I): > 8000 nM; IC50 (MDA-MB-157): > 8000 nM; IC50 (HT-29): > 8000 nM
COc1cccc2c1C(=O)c1c(O)c3c(c(O)c1C2=O)C[C@@](O)(C(=O)CO)C[C@@H]3O[C@H]1C[C@H](N)[C@H](O)[C@H](C)O1 [DOXORUBICIN] | > 1020 | 329 | 406 | 841 | 51.4 | 56 | 470 | 234 | 236 | 663 | > 1020 | 249 | 27 | 44.5 | 901 | 83.4 | > 1020 | 133 | > 1020 | 22.9 | IC50 (MIA PaCa-2): 34.2 nM; IC50 (SK-CO-1): 129 nM; IC50 (HO-1-N-1): 223 nM; IC50 (DMS-53): > 1020 nM; IC50 (SCC-3): 67.3 nM; IC50 (CAL-39): 98.2 nM; IC50 (RT-4): > 1020 nM; IC50 (HCC1419): 632 nM; IC50 (OAW-42): 154 nM; IC50 (LC-1F): > 1020 nM; IC50 (IGR-1): 33.9 nM; IC50 (MHH-ES-1): 21.6 nM; IC50 (A204): 12.9 nM; IC50 (SiHa): > 1020 nM; IC50 (Calu-1): 73.6 nM; IC50 (RMG-I): 514 nM; IC50 (MDA-MB-157): 499 nM; IC50 (HT-29): 36.6 nM
COC1=CC(c2cc3ccccc3[nH]2)=N/C1=C\c1[nH]c(C)cc1C [OBATOCLAX MESYLATE] | 7580 | 1760 | 1690 | 534 | 330 | 253 | 1240 | 347 | 52.5 | 179 | 1230 | 9630 | 57.2 | 18.3 | 1150 | 505 | > 16000 | 38.4 | 174 | 51.2 | IC50 (MIA PaCa-2): 233 nM; IC50 (SK-CO-1): 2620 nM; IC50 (HO-1-N-1): 92.5 nM; IC50 (DMS-53): 478 nM; IC50 (SCC-3): 446 nM; IC50 (CAL-39): 229 nM; IC50 (RT-4): 1600 nM; IC50 (HCC1419): 1830 nM; IC50 (OAW-42): 215 nM; IC50 (LC-1F): 3720 nM; IC50 (IGR-1): < 62.5 nM; IC50 (MHH-ES-1): 186 nM; IC50 (A204): 1600 nM; IC50 (SiHa): 3120 nM; IC50 (Calu-1): 313 nM; IC50 (RMG-I): 782 nM; IC50 (MDA-MB-157): 823 nM; IC50 (HT-29): 44.9 nM
